Results published in US7674463B1, “Method of inhibiting angiogenesis by administration of a corticotropin releasing factor receptor 2 agonist” (Research Development Foundation, priority 1999, dated 2010).
Entries after “also recorded” stand apart in the source; their conditions may differ. No end group written: not given here.

Tests used:
[1] = test system: mice; assay: hair growth over gel foam sponge implanted under shaved skin; format: in vivo; settings: after five days
Description: Small regions area of mice were shaved over of their skin and gel foam sponges impregnated with bFGF and urocortin, various growth factors, and CRF antagonist astressin were surgically implanted under the shaved skin. […] Therefore, urocortin and bFGF stimulate rapid hair growth.

[2] = test system: wild type mice; assay: cardiovascular response to intravenous infusion, wild type mice; format: in vivo
Description: (§1) The cardiovascular responses to intravenous infusion of urocortin and sodium nitroprusside, a vasodilator, were examined in mice (wild type: n 5; mutant: n=3) anesthetized with isofluorine. The arterial catheter for blood pressure recording was fabricated from a sterile PE-10 tubing softened and pulled to an outer diameter of ˜0.4 mm. The femoral artery was exposed, and the arterial catheter filled with heparin saline (500 U/ml) was implanted and secured with surgical threads and tissue glue (Vetbond). […] A second catheter was then implanted in the external jugular vein for intravenous infusion of drugs. Drug infusion was performed […] following completion of the cannulation procedure. The venous catheter was connected to a drug-filled syringe. Infusion was completed within 0.5-1.0 min. Both wild type and mutants received an identical dose of urocortin (0.1 μg in 200 μl of 0.9% saline) and saline (as a control).
(§2) The doses used were determined from preliminary experiments with reference to data obtained from corresponding studies in Sprague Dawley rats (2). In order to verify that the lack of cardiovascular response to the urocortin injection in mutants was not attributed to the loss of ability of the mice to vasodilate, the mutant mice also received a second infusion of sodium nitroprusside (0.8 μg in 100 μl of 0.9% saline) following recovery of arterial pressure from the urocortin infusion. The mean arterial pressure (MAP) was determined from the blood pressure tracings.

[3] = test system: CRFR2; settings: urocortin versus CRF; cited from earlier work
[4] = test system: CRFR2 null mutant mice; assay: cardiovascular response to intravenous infusion, CRFR2 null mutant mice; format: in vivo; settings: for arterial pressure response to urocortin: intravenous infusion
Description: as §1, §2

astressin
hair growth in shaved area above implanted sponge [1]: Little hair growth

urocortin (DNPSLSIDLTFHLLRTLLELARTQSQRERAEQNRIIFDSV; ends and bridges not checked; UniProt P55089 83-122, looked up) [a CRF-related peptide, thought to be the endogenous ligand for CRFR2]
depressor response (change in arterial pressure) ([2]; control mice, anesthetized, urocortin 0.1 μg intravenous infusion): −28.3±2.0 mm Hg | persistence of the reduction in arterial pressure (recording period) ([2]; control mice, urocortin 0.1 μg intravenous infusion): 90 to 120 min | mean arteriole pressure response to intravenous urocortin ([2]; wild type animals): dramatic decrease | affinity for CRFR2 relative to CRF [3]: ~40 fold | arterial pressure response to urocortin [4]: no measurable responses; also recorded: no response | arterial pressure response to urocortin ([4]; listed as UCN): remarkable muted response | reduction in arterial pressure, only 1 mutant mouse, transient ([4]; urocortin 0.1 μg intravenous, likely attributable to injection pressure): −3.5 mmHg
